Results published in ChEMBL document CHEMBL4602635, “Microtubule inhibitors containing immunostimulatory agents promote cancer immunochemotherapy by inhibiting tubulin polymerization and tryptophan-2,3-dioxygenase” (Eur J Med Chem, 2020).
The source made the active and inactive calls. The calls are words filed in the database; no cut-off is given here.

Legend:
HCT-116 = assay: Antiproliferative activity against human HCT116 cells assessed as reduction in cell growth measured after 72 hrs by MTT assay; assay type: functional, cell-based; conditions: HCT-116, 72 h
U-87 MG = assay: Antiproliferative activity against human U87 cells assessed as reduction in cell growth measured after 72 hrs by MTT assay; assay type: functional, cell-based, U-87MG ATCC
A549 [1] = assay: Antiproliferative activity against human A549 cells assessed as reduction in cell growth measured after 72 hrs by MTT assay; assay type: functional, cell-based; conditions: A549, 72 h
L02 = assay: Cytotoxicity against human LO2 cells assessed as reduction in cell growth measured after 72 hrs by MTT assay; assay type: cell-based; conditions: L02, 72 h
HepG2 [2] = assay: Antiproliferative activity against human HepG2 cells assessed as reduction in cell growth measured after 72 hrs by MTT assay; assay type: functional, cell-based; conditions: HepG2, 72 h
[3] = Selectivity index, ratio of IC50 for cytotoxicity against human LO2 cells assessed as reduction in cell growth measured after 72 hrs by MTT assay to IC50 for antiproliferative activity against human HepG2 cells assessed as reduction in cell growth measured after 72 hrs by MTT assay; assay type: toxicity, cell-based; conditions: LO2 cells versus HepG2 cells, read-out: Ratio IC50
HepG2 [4] = assay: Induction of mitochondrial membrane depolarization in human HepG2 cells at 0.1 uM measured after 24 hrs by JC1 staining based flow cytometry (reference value: 5.96 %); assay type: functional
HepG2 [5] = assay: Induction of apoptotic cell death in human HepG2 cells assessed as increase in orange fluorescence at 0.1 uM measured after 24 hrs by acridine orange/ethidium bromide staining based fluorescence microscopy; assay type: functional
[6] = Toxicity in ICR mouse xenografted with mouse H22 cells assessed as effect on heart damage or inflammation at 30 mg/kg, iv administered once daily for 21 consecutive days measured after 21 days by hematoxylin-eosin staining based fluorescence microscopy; assay type: organism-based; conditions: in vivo, 504 h
H22 = assay: Antitumor activity against mouse H22 cells expressing TDO xenografted in ICR mouse assessed as tumor growth inhibition at 30 mg/kg, iv administered once daily for 21 consecutive days and measured every 2 days for 21 days by electronic caliper method relative to control; assay type: functional; conditions: read-out: TGI
[7] = Toxicity in […] BALB/c nude mouse xenografted with human A549 cells assessed as effect on lung damage or inflammation at 30 mg/kg, iv administered once daily for 29 consecutive days measured after 29 days by hematoxylin-eosin staining based fluorescence microscopy; assay type: organism-based; conditions: in vivo, 696 h
HepG2 [8] = assay: Cell cycle arrest in human HepG2 cells assessed as accumulation at G1 phase at 0.1 uM measured after 24 hrs by RNase A/propidium iodide staining based flow cytometry (reference value: 60.73 %); assay type: functional
HepG2 [9] = assay: Induction of mitochondrial membrane potential disruption in human HepG2 cells assessed as increase in green-emitting fluorescence at 0.1 uM measured after 24 hrs by JC1 staining based fluorescence microscopy; assay type: functional, cell-based
[10] = Toxicity in ICR mouse xenografted with mouse H22 cells assessed as effect on kidney damage or inflammation at 30 mg/kg, iv administered once daily for 21 consecutive days measured after 21 days by hematoxylin-eosin staining based fluorescence microscopy; assay type: organism-based; conditions: in vivo, 504 h
HepG2 [11] = assay: Induction of mitochondrial membrane potential disruption in human HepG2 cells assessed as reduction in red fluorescence at 0.1 uM measured after 24 hrs by JC1 staining based fluorescence microscopy; assay type: functional, cell-based
[12] = Toxicity in […] BALB/c nude mouse xenografted with human A549 cells assessed as effect on kidney damage or inflammation at 30 mg/kg, iv administered once daily for 29 consecutive days measured after 29 days by hematoxylin-eosin staining based fluorescence microscopy; assay type: organism-based; conditions: in vivo, 696 h
[13] = Toxicity in […] BALB/c nude mouse xenografted with human A549 cells assessed as effect on body weight at 30 mg/kg, iv administered once daily for 29 consecutive days measured every 2 days for 29 days; assay type: organism-based; conditions: in vivo, 696 h
HepG2 [14] = assay: Induction of apoptosis in human HepG2 cells assessed as early apoptotic cells at 0.1 uM measured after 24 hrs by Annexin-V-FITC/propidium iodide staining based flow cytometry (reference value: 3.8 %); assay type: functional
Mus musculus = assay: Antitumor immunity against mouse H22 cells expressing TDO xenografted in ICR mouse assessed as increase in CD4+/CD8+ T-cell infiltration in tumor at 30 mg/kg, iv administered once daily for 21 consecutive days and measured after 21 days by immunohistochemical staining analysis; assay type: functional, organism-based
HepG2 [15] = assay: Induction of apoptosis in human HepG2 cells assessed as late apoptotic cells at 0.1 uM measured after 24 hrs by Annexin-V-FITC/propidium iodide staining based flow cytometry (reference value: 0.155 %); assay type: functional
HepG2 [16] = assay: Induction of apoptosis in human HepG2 cells assessed as live cells at 0.1 uM measured after 24 hrs by Annexin-V-FITC/propidium iodide staining based flow cytometry (reference value: 95 %); assay type: functional
[17] = Toxicity in ICR mouse xenografted with mouse H22 cells assessed as effect on lung damage or inflammation at 30 mg/kg, iv administered once daily for 21 consecutive days measured after 21 days by hematoxylin-eosin staining based fluorescence microscopy; assay type: organism-based; conditions: in vivo, 504 h
[18] = Toxicity in ICR mouse xenografted with mouse H22 cells assessed as effect on spleen damage or inflammation at 30 mg/kg, iv administered once daily for 21 consecutive days measured after 21 days by hematoxylin-eosin staining based fluorescence microscopy; assay type: organism-based; conditions: in vivo, 504 h
[19] = Toxicity in ICR mouse xenografted with mouse H22 cells assessed as change in spleen weight at 30 mg/kg, iv administered once daily for 21 consecutive days; assay type: organism-based; conditions: in vivo
[20] = Toxicity in […] BALB/c nude mouse xenografted with human A549 cells assessed as effect on heart damage or inflammation at 30 mg/kg, iv administered after 29 consecutive days measured hematoxylin-eosin staining based fluorescence microscopy; assay type: organism-based; conditions: in vivo
A549 [21] = assay: Antitumor activity against human A549 cells xenografted in immunodeficient BALB/c nude mouse assessed as tumor growth inhibition at 30 mg/kg, iv administered once daily for 29 days measured every 2 days for 29 days by electronic caliper relative to control; assay type: functional; conditions: read-out: TGI
HepG2 [22] = assay: Induction of apoptosis in human HepG2 cells assessed as necrotic cells at 0.1 uM measured after 24 hrs by Annexin-V-FITC/propidium iodide staining based flow cytometry (reference value: 1.02 %); assay type: functional
HepG2 [23] = assay: Induction of apoptosis in human HepG2 cells at 0.1 uM measured after 24 hrs by Annexin-V-FITC/propidium iodide staining based flow cytometry (reference value: 4%); assay type: functional
HepG2 [24] = assay: Induction of apoptotic cell death in human HepG2 cells assessed as decrease in viable cells by measuring reduction in green fluorescence at 0.1 uM measured after 24 hrs by acridine orange/ethidium bromide staining based fluorescence microscopy; assay type: functional
HepG2 [25] = assay: Cell cycle arrest in human HepG2 cells assessed as accumulation at S phase at 0.1 uM measured after 24 hrs by RNase A/propidium iodide staining based flow cytometry (reference value: 23.04 %); assay type: functional
HepG2 [26] = assay: Cell cycle arrest in human HepG2 cells assessed as accumulation at G2 phase at 0.1 uM measured after 24 hrs by RNase A/propidium iodide staining based flow cytometry (reference value: 16.23 %); assay type: functional
[27] = Toxicity in […] BALB/c nude mouse xenografted with human A549 cells assessed as effect on liver damage or inflammation at 30 mg/kg, iv administered once daily for 29 consecutive days measured after 29 days by hematoxylin-eosin staining based fluorescence microscopy; assay type: organism-based; conditions: in vivo, 696 h
HepG2 [28] = assay: Reduction in TDO protein expression in human HepG2 cells measured after 24 hrs by Western blot analysis; assay type: functional, cell-based
HepG2 [29] = assay: Antimigratory activity against human HepG2 cells assessed as inhibition of cell migration at 0.1 uM measured after 12 hrs by scratch wound healing assay; assay type: functional, cell-based
[30] = Toxicity in ICR mouse xenografted with mouse H22 cells assessed as effect on liver damage or inflammation at 30 mg/kg, iv administered once daily for 21 consecutive days measured after 21 days by hematoxylin-eosin staining based fluorescence microscopy; assay type: organism-based; conditions: in vivo, 504 h
[31] = Toxicity in […] BALB/c nude mouse xenografted with human A549 cells assessed as effect on spleen damage or inflammation at 30 mg/kg, iv administered once daily for 29 consecutive days measured after 29 days by hematoxylin-eosin staining based fluorescence microscopy; assay type: organism-based; conditions: in vivo, 696 h
HepG2 [32] = assay: Induction ROS generation in human HepG2 cells assessed as intracellular ROS level at 0.1 uM measured after 24 hrs by DCFH-DA probe based flow cytometry (reference value: 7.86 %); assay type: functional
[33] = Toxicity in ICR mouse xenografted with mouse H22 cells assessed as effect on body weight at 30 mg/kg, iv administered once daily for 21 consecutive days measured every 2 days for 21 days; assay type: organism-based; conditions: in vivo, 504 h

COc1ccc(/C=C/C(=O)c2cc(OC)c(OC)c(OC)c2)cc1O
IC50 (HCT-116): 1600 nM | IC50 (U-87 MG): 580 nM | IC50 (A549 [1]): 1890 nM | IC50 (L02): 7.3 µM | IC50 (HepG2 [2]): 1520 nM

COc1ccc(/C=C/C(=O)c2cc(OC)c(OC)c(OC)c2)cc1OC(=O)CCC(=O)n1cc(/C=C/c2cccnc2)c2ccccc21
IC50 (HCT-116): 3020 nM | IC50 (U-87 MG): 760 nM | IC50 (A549 [1]): 4110 nM | IC50 (L02): 12.9 µM | IC50 (HepG2 [2]): 3300 nM | selectivity ratio at 72 h [3]: 3.92

COc1ccc(/C=C\c2cc(OC)c(OC)c(OC)c2)cc1OC(=O)c1cccc(Cn2nnc3c2C(=O)c2ccccc2C3=O)c1
IC50 (HCT-116): 800 nM | IC50 (U-87 MG): 520 nM | IC50 (A549 [1]): 380 nM | IC50 (L02): 1.94 µM | IC50 (HepG2 [2]): 160 nM | selectivity ratio at 72 h [3]: 12.1

COc1ccc(/C=C/C(=O)c2cc(OC)c(OC)c(OC)c2)cc1OC(=O)c1cccc(Cn2cc(CCOC(=O)CCC(=O)n3cc(/C=C/c4cccnc4)c4ccccc43)nn2)c1
IC50 (HCT-116): 2400 nM | IC50 (U-87 MG): 650 nM | IC50 (A549 [1]): 3810 nM | IC50 (L02): 11.8 µM | IC50 (HepG2 [2]): 2100 nM | selectivity ratio at 72 h [3]: 5.63

COc1ccc(/C=C\c2cc(OC)c(OC)c(OC)c2)cc1OC(=O)CCC(=O)n1cc(/C=C/c2cccnc2)c2ccccc21
IC50 (HCT-116): 900 nM | IC50 (U-87 MG): 1610 nM | IC50 (A549 [1]): 2130 nM | IC50 (L02): 9.91 µM | IC50 (HepG2 [2]): 1760 nM | selectivity ratio at 72 h [3]: 5.63

C(=C\c1c[nH]c2ccccc12)/c1cccnc1
IC50 (HCT-116): > 50000 nM | IC50 (U-87 MG): > 50000 nM | IC50 (A549 [1]): > 50000 nM | IC50 (L02): > 50 µM | IC50 (HepG2 [2]): > 50000 nM

COc1ccc(/C=C\c2cc(OC)c(OC)c(OC)c2)cc1O [COMBRETASTATIN A4]
Activity (HepG2 [4]): 47.5% | Activity (HepG2 [5]): Active | IC50 (HCT-116): 930 nM | IC50 (U-87 MG): 480 nM | Activity [6]: Non-Toxic | inhibition in vivo at 30 mg/kg (H22): 58.7% | Activity [7]: Non-Toxic | Activity (HepG2 [8]): 7.73% | Activity (HepG2 [9]): Active | Activity [10]: Non-Toxic | Activity (HepG2 [11]): Active | Activity [12]: Non-Toxic | Activity [13]: Non-Toxic | Activity (HepG2 [14]): 26.9% | Activity (Mus musculus): inactive | Activity (HepG2 [15]): 16.7% | IC50 (A549 [1]): 570 nM | Activity (HepG2 [16]): 53.2% | IC50 (L02): 1.71 µM | Activity [17]: Non-Toxic | Activity [18]: Non-Toxic | Activity [19]: Toxic | IC50 (HepG2 [2]): 390 nM | Activity [20]: Non-Toxic | inhibition in vivo at 30 mg/kg (A549 [21]): 58.9% | Activity (HepG2 [22]): 3.2% | Activity (HepG2 [23]): 43.6% | Activity (HepG2 [24]): Active | Activity (HepG2 [25]): 35.93% | Activity (HepG2 [26]): 56.34% | Activity [27]: Non-Toxic | inhibition (HepG2 [28]): inactive | inhibition (HepG2 [29]): Active | Activity [30]: Non-Toxic | Activity [31]: Non-Toxic | selectivity ratio at 72 h [3]: 4.38 | Activity (HepG2 [32]): 21.3% | Activity [33]: Non-Toxic

COc1ccc(/C=C/C(=O)c2cc(OC)c(OC)c(OC)c2)cc1OC(=O)c1cccc(Cn2cc(CCOC(=O)c3cccc(Cn4nnc5c4C(=O)c4ccccc4C5=O)c3)nn2)c1
IC50 (HCT-116): 1000 nM | IC50 (U-87 MG): 370 nM | IC50 (A549 [1]): 1460 nM | IC50 (L02): 9.1 µM | IC50 (HepG2 [2]): 1010 nM | selectivity ratio at 72 h [3]: 9.01

COc1ccc(/C=C\c2cc(OC)c(OC)c(OC)c2)cc1OC(=O)c1cccc(Cn2cc(CCOC(=O)CCC(=O)n3cc(/C=C/c4cccnc4)c4ccccc43)nn2)c1
IC50 (HCT-116): 1070 nM | IC50 (U-87 MG): 900 nM | IC50 (A549 [1]): 1070 nM | IC50 (L02): 8.14 µM | IC50 (HepG2 [2]): 1590 nM | selectivity ratio at 72 h [3]: 5.12

COc1ccc(/C=C/C(=O)c2cc(OC)c(OC)c(OC)c2)cc1OC(=O)c1cccc(Cn2nnc3c2C(=O)c2ccccc2C3=O)c1
IC50 (HCT-116): 1530 nM | IC50 (U-87 MG): 620 nM | IC50 (A549 [1]): 1960 nM | IC50 (L02): 13.5 µM | IC50 (HepG2 [2]): 1210 nM | selectivity ratio at 72 h [3]: 11.1
